# Assays:
# [1] = Partition coefficient between octanol and water (Log P); format: physicochemical; conditions: n-octanol/water; ratios 9:1, 7:3, 1:1; HPLC
# Description: To determine the partition coefficient of each ion pair, about 15 mg of each ion pair was dissolved in separate 100 ml portions of n-octanol (previously saturated with water). Three n-octanol solutions were prepared for each ion pair. Mixtures having three different volumetric ratios of n-octanol to water (9:1, 7:3, and 1:1) were prepared by adding water and agitating the mixtures on a bench top agitator for two hours. After agitation, samples from each mixture were centrifuged for 10 min at 10,000 rpm to separate aqueous and n-octanol phase. The concentration of methylnaltrexone in the aqueous and n-octanol phases was determined by HPLC. Log P was calculated from the ratio of the drug concentration in n-octanol to the drug concentration in water.
# [2] = tested on: opioid-induced constipation; conditions: 12 mg subcutaneous injection; patients with chronic non-cancer pain; cited from earlier work
Compound,LogP [1],Patients with three or more spontaneous bowel movements each week for four weeks [2] [%]
CCCCC(CC)COC(=O)CC(C(=O)OCC(CC)CCCC)S(=O)(=O)[O-].C[N+]1(CC2CC2)CCC23c4c5ccc(O)c4OC2C(=O)CCC3(O)C1C5 (stereo not drawn) [Methylnaltrexone - Docusate],1.67,
"C[N@+]1(CC2CC2)CC[C@]23c4c5ccc(O)c4O[C@H]2C(=O)CC[C@@]3(O)[C@H]1C5 [methylnaltrexone, (R)—N-methylnaltrexone]",,59
Methylnaltrexone - Lauryl Sulfate,1.23,

# From patent publication US20220096461A1, “LIQUID ORAL DOSAGE FORMULATIONS OF METHYLNALTREXONE” (Bausch Health Ireland Limited, priority 2019, published 2022)
